Literature values, collected in patent US20250152551A1, “DOCETAXEL COMPOSITIONS AND METHODS” (ZHUHAI BEIHAI BIOTECH CO., LTD., priority 2022, published 2025).

Key:
[1] = test system: microtubule depolymerization

For `CC(=O)O[C@@]12CO[C@@H]1C[C@H](O)[C@@]1(C)C(=O)[C@H](O)C3=C(C)[C@@H](OC(=O)[C@H](O)[C@@H](NC(=O)OC(C)(C)C)c4ccccc4)C[C@@](O)([C@@H](OC(=O)c4ccccc4)[C@H]21)C3(C)C` [docetaxel], the Solubility in water is listed as “practically insoluble in water” and the “Potency in inhibiting microtubule depolymerization relative to paclitaxel” value [1] is listed as “about twice as potent as paclitaxel”.
